Source: patent publication US20210000852A1, “POLYDATIN PACLITAXEL COMPOSITION, AND APPLICATION IN PREPARING MEDICAMENT FOR PREVENTING AND TREATING GASTRIC CANCER” (Tianjin Medical University Cancer Institute and Hospital, priority 2018, published 2021)

Key:
[1] = test system: human gastric cancer cells AGS; test: CCK-8 growth and proliferation activity, AGS cells; type: cell-based; conditions: for inhibition of the activity of gastric cancer cells (single agent): 24 h, concentration gradients; for IC50 / IC50 of AGS cells: treated for 24 h
Text: (§1) Human gastric cancer cell line SGC-7901 was purchased from Shanghai Genechem Co., Ltd. and human gastric cancer cell line AGS was purchased from Cell Bank of American Type Culture Collection (ATCC) (ATCC No. CRL-1739).
(§2) In FIG. 5, the mass ration of composition is as follows: (a) mPD: mPaclitaxel=22.65:1 (Example 3); (b) mPD: mPaclitaxel=45.29:1; (c) mPD: mPaclitaxel=90.59:1; (d) mPD: mPaclitaxel=226.48:1. In FIG. 6, the mass ration of composition is as follows: (a) mPD: mPaclitaxel=8.44:1; (b) mPD: mPaclitaxel=16.88:1; (c) mPD: mPaclitaxel=33.77:1 (Example 4).
(§3) In FIG. 7, the mass ration of composition is as follows: (a) mPD: mPactitaxel=45.29:1; (b) mPD: mPaclitaxel=90.59:1; (c) mPD: mPaclitaxel=226.48:1. In FIG. 8, the mass ration of composition is as follows: (a) mPD: mPaclitaxel=16.88:1; (b) mPD: mPaclitaxel=33.77:1.

[2] = test system: human gastric cancer cells SGC-7901; test: CCK-8 growth and proliferation activity, SGC-7901 cells; type: cell-based; conditions: for inhibition of the activity of gastric cancer cells (single agent): SGC-7901, 24 h, concentration gradients; for IC50 / IC50 of SGC-7901 cells: SGC-7901, treated for 24 h
Text: as §1, §2, §3

Molecule | inhibition of the activity of gastric cancer cells (single agent) [1] | IC50 [1] [µM] | IC50 of AGS cells [1] [µg/mL] | inhibition of the activity of gastric cancer cells (single agent) [2] | IC50 [2] [µM] | IC50 of SGC-7901 cells [2] [µg/mL]
CC(=O)O[C@H]1C(=O)[C@@]2(C)[C@H]([C@H](OC(=O)c3ccccc3)[C@]3(O)C[C@H](OC(=O)[C@H](O)[C@@H](NC(=O)c4ccccc4)c4ccccc4)C(C)=C1C3(C)C)[C@]1(OC(C)=O)CO[C@@H]1C[C@@H]2O [Paclitaxel] | inhibit the activity of both gastric cancer cells in a concentration-dependent manner | 3.34 | 6.3 | inhibit the activity of both gastric cancer cells in a concentration-dependent manner | 5.27 | 5.5
Polydatin | inhibit the activity of both gastric cancer cells in a concentration-dependent manner | 56.2 | 53.5 | inhibit the activity of both gastric cancer cells in a concentration-dependent manner | 139 | 124.0
